Experimental data reported in publication PMC9658316, “Discovery of Mitochondrial Complex I Inhibitors as Anticancer and Radiosensitizer Drugs Based on Compensatory Stimulation of Lactate Release” (Cancers, 2022).

How the values were obtained:
mitochondrial complex I = mitochondrial complex I (Mus musculus, UniProt P03888+Q91WD5+Q9DC70); assay: Seahorse OCR in permeabilized CT26 cancer cells, mitochondrial complex I inhibition (Assay #2); format: cell-based; settings: for IC50: pyruvate/malate, tested at 1 and 10 µM, read-out: OCR inhib. (IC50); for significant inhibition of complex I: up to 10 µM
Procedure: (§1) L-lactate concentration was measured in a semi-automated manner using CMA Microdialysis AB enzymatic assay and a CMA 600 analyzer (Aurora Borealis, Schoonebeek, The Netherlands) as previously described. Briefly, cells (2 × 10^5 cells per well; 3 wells/condition) were seeded in 12-well plates with 2 mL of their routine culture medium. After 24 h, medium was replaced by 500 µL of DMEM containing 10 mmol/L D-glucose and supplemented with 2 mmol/L L-glutamine and 10% dialyzed FBS (Sigma-Aldrich), in the presence of the compounds or vehicle (DMSO). The initial concentration of L-lactate in the experimental medium was also assessed by including control wells containing only cell culture medium (no cells) on each plate. After incubation for 24 h, extracellular media were collected and deproteinized by centrifugation (15 min, 10,000 rpm, 4 °C) in 10 kDa cut-off filter tubes (VWR, Avantor, Leuven, Belgium). Differences in L-lactate concentrations between control and treated cells were calculated and normalized by the protein content in each well and expressed in µmol/h/mg protein. Oxygen-consumption rate (OCR) was measured using the Seahorse XF96 plate reader as previously reported. Briefly, cells (2 × 10^4 cells per well) were first permeabilized with 1 nM Seahorse XF Plasma Membrane Permeabilizer (#102504-100; Agilent, Machelen, Belgium) and respiration was stimulated by adding 10 mM pyruvate, 5 mM malate, and 2 mM ADP. After baseline OCR determination, compounds were added (to inhibit complex I) followed by 10 mM succinate to fuel complex II and rescue the electron transport chain. In some experiments, the effects of selected hits on basal OCR were evaluated in intact cells (including in the presence of MCT1/2 inhibitor AR-C155858 [29] or methylpyruvate). OCR data were normalized according to protein content in each well.
(A–D). Graphs depict changes in O2 consumption rate (OCR) measured with the Seahorse technology on permeabilized CT26 cancer cells upon successive addition of pyruvate/malate, the indicated inhibitor and succinate. […] (E,F).

[1] = test system: colorectal CT26 cancer cells; assay: Compound-induced L-lactate release (Assay #1), CT26; format: cell-based, mouse; settings: 10 µM; for [LAC] increase: 24 h exposure, L-lactate secretion above basal release; for L-lactate release compared with reference compound aa: 24 h
Procedure: as §1
Figure 3 Compound-induced L-lactate release (Assay #1). Culture medium was collected after 24 h exposure to the indicated compounds (10 µM) and the amount of extracellular L-lactate release was determined in a semi-automated manner; dose-dependent effects of complex I inhibitor IACS are shown on the right (shaded bars). Bar graph depicts the extent of L-lactate secretion above the basal release as determined in the absence of any compound (n = 3, ** p < 0.01 for increased L-lactate release vs. reference compound aa).

[2] = test system: human cervix Siha cancer cells; assay: Growth inhibitory effects on human cancer cells (Presto Blue), SiHa vs MDA-MB-231; format: cell-based; settings: 1 µM
Source text: (§2) Mouse colorectal CT26 and breast 4T1 cancer cells as well as human cervix cancer SiHa and breast MDA-MD-231 cancer cells were acquired from ATCC where they are regularly authenticated by short tandem repeat profiling. They were stored according to the supplier’s instructions and used within 6 months after resuscitation of frozen aliquots. Cancer cells were maintained in DMEM (Life Technologies, ThermoFischer scientific, Merebelke, Belgium) supplemented with 10% heat-inactivated FBS. All cell lines were tested for mycoplasma contamination with the MycoAlert™ Mycoplasma Detection kit (#LT07-318; Lonza, Verviers, Belgium) before being used. Cell integrity was determined by the Trypan Blue exclusion method (using Bürker chambers) while cell growth was assessed by using the Presto Blue reagent (Life Technologies) according to manufacturer’s instructions.
Suppl. Figure S3. Growth inhibitory effects of hit compounds on human cancer cells. MDA-M B-231 (A) and Siha (B) cancer cells were exposed to 100 nM IACS or 1 µM aa, ag, aj and au compounds; data represent the reduced extent (expressed as %) of cell viability (determined with Presto Blue) when compared with vehicle conditions (n=3).
(also on this page, place not known: 60Growth inhibitory effects (%) MDA-MB-231 aa au 60Growth inhibitory effects (%))

breast 4T1 cancer cells = assay: Growth inhibitory effects on cultured 4T1 cells (Presto Blue); format: cell-based, mouse; settings: 4T1 monolayers, 1 µM, 72 h, compared with CT26
Source text: as §2
(§3) Figure 4 Mitochondrial complex I activity inhibition (Assay #2). (A–D). Graphs depict changes in O2 consumption rate (OCR) measured with the Seahorse technology on permeabilized CT26 cancer cells upon successive addition of pyruvate/malate, the indicated inhibitor and succinate. OXPHOS I inhibitor IACS was used as a control in the experiments testing reference compound aa (A), and compound aa (10µM) was used as reference for testing au, ah and at derivatives (B–D) (n = 6 per compound). (E,F). Growth inhibitory effects of cultured CT26 (E) and 4T1 […] cancer cells exposed to 100 nM IACS or 1 µM aa, ag, aj and au compounds for 72 h; data represent the reduced extent (expressed as %) of cell viability (determined with Presto Blue) when compared with vehicle conditions (n = 3).

CT26 colon cancer cells = assay: Growth inhibitory effects on cultured CT26 cells (Presto Blue); format: cell-based, mouse; settings: CT26 monolayers, 1 µM, 72 h
Source text: as §2, §3

3D tumor CT26 spheroids = assay: Inhibition of 3D tumor spheroid growth (Assay #3); format: cell-based, mouse; settings: CT26 spheroids, day 10
Procedure: Spheroids were prepared by seeding 1500 cells/well in Ultra-Low Attachment 96-well plate (Corning, Merck, Hoeilaart, Belgium) in DMEM supplemented with 10% heat-inactivated FBS. Inhibitors were added on day 4 (mean diameter of spheroids: 300 µm) and renewed every 3 days. Spheroid growth was monitored using live-cell phase contrast microscope (Axio Observer, Zeiss, Zaventem, Belgium); spheroid area, density and morphology were measured using ImageJ software. Confocal fluorescence microscopy (LSM510, Zeiss, Zaventem, Belgium) was used for detecting pimonidazole immunostaining as previously reported. Spheroids from a same experiment were imaged with the same gain and exposure settings. In some experiments, OXPHOSi treatment was combined with irradiation using a ^137Cs γ-irradiator (IBL-637; CIS-BioInternational, Saclay, France) as previously described.
Figure 5 Inhibition of 3D tumor spheroid growth (Assay #3). […] Drug exposure without (A) or with irradiation (B) was associated with a significant reduction in spheroid sizes vs. untreated spheroids (not shown).

intact CT26 cancer cells = assay: Seahorse basal OCR and ECAR in intact (non-permeabilized) CT26 cancer cells; format: cell-based, mouse; settings: for restoration of OCR / OXPHOS activity in cells exposed to aa compound: intact CT26 cells exposed to aa
Procedure: as §1
Since other lactate transporters could be involved, we also used methylpyruvate which can bypass the need for a mitochondrial carrier and mimic the result of lactate oxidation by a mitochondrial LDH or ensure the delivery of pyruvate into the mitochondria matrix. […] In the same experiments carried out on non-permeabilized cancer cells, the extent of basal OCR inhibition in response to 10 µM aa was similar to that observed with 100 nM IACS-010759 (−52 ± 5% and −45 ± 6%, respectively) and mirrored by an increase in extracellular acidification rate (ECAR) (+36 ± 11% and +29 ± 9%, respectively).

SMILES: Nc1c(C(=O)O)nnn1Cc1ccccc1N1CCSCC1 [bf]
- IC50 (mitochondrial complex I): > 10 µM
- [LAC] increase [1]: ~0 µmol/h/mg

SMILES: NC(=O)c1nnn(Cc2cc(Cl)c(C(=O)c3ccc(C(F)(F)F)cc3)c(Cl)c2)c1N [ag]
- antiproliferative effects in Siha compared with MDA-MB-231 cells [2]: Larger antiproliferative effects
- growth inhibitory activity (breast 4T1 cancer cells): more significant growth inhibitory activity
- cytotoxic / growth inhibitory effects (CT26 colon cancer cells): very limited effects
- spheroid growth inhibition compared with reference compound aa (3D tumor CT26 spheroids): inhibited spheroid growth to the same extent as compound aa
- L-lactate release compared with reference compound aa [1]: more potent inducers of L-lactate release
- [LAC] increase [1]: ~4 µmol/h/mg

SMILES: Nc1c(C(=O)O)nnn1Cc1ccccc1NC(=O)c1ccc(OC(F)(F)F)cc1 [be]
- IC50 (mitochondrial complex I): > 10 µM
- [LAC] increase [1]: ~0 µmol/h/mg

SMILES: CC(C)(C)OC(=O)N1CCC(Nc2cccc(Cn3nnc(C(=O)O)c3N)c2)CC1 [bc]
- IC50 (mitochondrial complex I): > 10 µM
- [LAC] increase [1]: ~0 µmol/h/mg

SMILES: Nc1c(C(=O)O)nnn1Cc1cccc(NC(=O)c2ccc(OC(F)(F)F)cc2)c1 [bb]
- IC50 (mitochondrial complex I): > 10 µM
- [LAC] increase [1]: ~0 µmol/h/mg

SMILES: Nc1c(C(=O)O)nnn1Cc1ccc(NC(=O)c2ccc(Cl)cc2)cc1 [ba]
- IC50 (mitochondrial complex I): > 10 µM
- [LAC] increase [1]: ~0 µmol/h/mg

SMILES: O=C(O)c1cn(Cc2cc(Cl)c(C(=O)c3ccc(Cl)cc3)c(Cl)c2)nn1 [ar]
- IC50 (mitochondrial complex I): > 10 µM
- [LAC] increase [1]: ~0 µmol/h/mg

SMILES: NC(=O)c1cn(Cc2cc(F)c(C(=O)c3ccc(Cl)cc3)c(F)c2)nn1 [aw]
- IC50 (mitochondrial complex I): > 10 µM
- [LAC] increase [1]: ~0 µmol/h/mg

SMILES: CC(=O)c1c(Cl)cc(Cn2nnc(C(N)=O)c2N)cc1Cl [ao]
- IC50 (mitochondrial complex I): > 10 µM
- significant inhibition of complex I (mitochondrial complex I): did not show significant inhibition of complex I
- [LAC] increase [1]: ~2 µmol/h/mg

SMILES: COC(=O)C(C)=O [Methylpyruvate, methylpyruvate]
- restoration of OCR / OXPHOS activity in cells exposed to aa compound (intact CT26 cancer cells): failed to restore OXPHOS activity

SMILES: NC(=O)c1nnn(Cc2cc(Cl)c(C(=O)c3ccc(OC(F)(F)F)cc3)c(Cl)c2)c1N [af]
- IC50 (mitochondrial complex I): ~10 µM
- [LAC] increase [1]: ~2 µmol/h/mg

SMILES: Nc1c(C(=O)O)nnn1Cc1cccc(N2CCOCC2)c1 [bd]
- IC50 (mitochondrial complex I): > 10 µM
- [LAC] increase [1]: ~0 µmol/h/mg

SMILES: COc1ccc(C(=O)c2c(Cl)cc(Cn3nnc(C(N)=O)c3N)cc2Cl)cc1 [ae]
- IC50 (mitochondrial complex I): ~10 µM
- [LAC] increase [1]: ~2 µmol/h/mg

SMILES: Cc1ccc(C(=O)c2c(Cl)cc(Cn3nnc(C(N)=O)c3N)cc2Cl)cc1 [ac]
- IC50 (mitochondrial complex I): ~10 µM
- [LAC] increase [1]: ~2 µmol/h/mg

SMILES: Cc1cc(C)cc(Cn2nnc(C(N)=O)c2N)c1 [ap]
- IC50 (mitochondrial complex I): > 10 µM
- [LAC] increase [1]: ~0 µmol/h/mg

SMILES: NC(=O)c1nnn(Cc2cc(Cl)c(CN3CCOCC3)c(Cl)c2)c1N [ai]
- IC50 (mitochondrial complex I): > 10 µM
- significant inhibition of complex I (mitochondrial complex I): did not show significant inhibition of complex I
- [LAC] increase [1]: ~2 µmol/h/mg

SMILES: Cc1cccc(C(=O)c2c(Cl)cc(Cn3nnc(C(N)=O)c3N)cc2Cl)c1 [ad]
- IC50 (mitochondrial complex I): ~10 µM
- [LAC] increase [1]: ~2 µmol/h/mg

SMILES: Cc1nc(-c2nc(-c3ccc(OC(F)(F)F)cc3)no2)nn1Cc1cccc(N2CCC(S(C)(=O)=O)CC2)c1 [IACS-010759, reference compound]
- increase in extracellular acidification rate (ECAR) (intact CT26 cancer cells; non-permeabilized CT26 cells, 100 nM): +29 ± 9%
- concentration giving the same extent of maximal OCR inhibition (mitochondrial complex I): 100 nM

SMILES: O=C(c1ccc(Cl)cc1)c1c(Cl)cc(Cn2cc(CO)nn2)cc1Cl [av]
- IC50 (mitochondrial complex I): > 10 µM
- [LAC] increase [1]: ~0 µmol/h/mg

SMILES: NC(=O)c1nnn(Cc2cc(Cl)cc(Cl)c2)c1N [aq]
- IC50 (mitochondrial complex I): > 10 µM
- [LAC] increase [1]: ~0 µmol/h/mg

SMILES: NC(=O)c1nnn(Cc2cc(Cl)c(C(=O)c3ccc4ccccc4c3)c(Cl)c2)c1N [ah]
- pattern of OCR inhibition activity relative to aa (mitochondrial complex I; 1 and 10 µM): hypoactive
- IC50 (mitochondrial complex I): ~10 µM
- [LAC] increase [1]: ~2 µmol/h/mg

SMILES: NC(=O)c1nnn(Cc2cc(F)c(C(=O)c3ccc(Cl)cc3)c(F)c2)c1N [an]
- IC50 (mitochondrial complex I): ~10 µM
- spheroid growth inhibition compared with reference compound aa (3D tumor CT26 spheroids): inhibited spheroid growth to the same extent as compound aa
- L-lactate release compared with reference compound aa [1]: more potent inducers of L-lactate release
- [LAC] increase [1]: ~4 µmol/h/mg

SMILES: NC(=O)c1cn(Cc2cc(Cl)c(C(=O)c3ccc(Cl)cc3)c(Cl)c2)nn1 [as]
- IC50 (mitochondrial complex I): > 10 µM
- significant inhibition of complex I (mitochondrial complex I): did not show significant inhibition of complex I
- [LAC] increase [1]: ~2 µmol/h/mg

SMILES: NC(=O)c1nnn(Cc2cc(Cl)c(Cc3ccc(C(F)(F)F)cc3)c(Cl)c2)c1N [compound al]
- IC50 (mitochondrial complex I): > 10 µM
- [LAC] increase [1]: ~0 µmol/h/mg

SMILES: C=CCNC(=O)c1nnn(Cc2cc(Cl)c(C(=O)c3ccc(C(F)(F)F)cc3)c(Cl)c2)c1N [ak]
- IC50 (mitochondrial complex I): > 10 µM
- [LAC] increase [1]: ~0 µmol/h/mg

SMILES: NC(=O)c1nnn(Cc2cc(Cl)c(C(=O)c3ccccc3)c(Cl)c2)c1N [ab]
- IC50 (mitochondrial complex I): ~10 µM
- [LAC] increase [1]: ~2 µmol/h/mg

SMILES: Cc1n[nH]c(C)c1Cc1sc2c(c1C(=O)N1C[C@H](O)CO1)c(=O)n(C)c(=O)n2CC(C)C [AR-C155858]
- restoration of OCR / OXPHOS activity in cells exposed to aa compound (intact CT26 cancer cells): failed to restore OCR
